Patent publication US20220249596A1, “PIC1 PEPTIDE COMPOSITIONS AND METHODS OF USE THEREOF FOR TREATMENT OF HYPOXIC ISCHEMIC ENCEPHALOPATHY” (REALTA HOLDINGS, LLC, priority 2019, published 2022)
No end group written: not given here.

What was measured:
brain infarct after HIE = conditions: rat, in vivo, ip, 160 mg/kg
C3aR = assay: Whole brain C3aR expression, Western blotting and immunofluorescence; format: in vivo, rat; conditions: PIC1 group versus NT animals, P<0.05
Protocol: After blocking for one hour at room temperature, tissues were incubated with 1:300 goat anti-Iba1 (Abcam), 1:250 goat anti-GFAP (Abcam), 1:500 chicken anti-NeuN (Millipore, Billerica, Mass.), or 1:100 mouse anti-NeuN (Millipore) in host appropriate blocking serum overnight at 4° C. Primary antibodies were probed with 1:500 donkey anti-goat (Abcam), goat anti-chicken (Abcam), or goat anti-mouse (Abcam) AF 488 or 568 in appropriate blocking serum for one hour at room temperature. Tissues were blocked a second time with NGS for one hour at room temperature. Samples were then probed with 1:300 mouse anti-C1q (Abcam), 1:300 rabbit anti-C9, 1:50 rabbit anti-MPO (Abcam), 1:200 rabbit anti-TMEM (Novus Bio, Centennial, Colo.), 1:100 rabbit anti-C3aR (Bioss), 1:100 Mouse anti-C5aR (Hycult), or 1:200 chicken anti-C3/C3a (Abcam) in NGS overnight at 4° C. and then with 1:500 goat anti-mouse, rabbit, or chicken (Abcam) AF 488 or 568 in NGS for one hour at room temperature.
Without wishing to be bound by theory, C3a is generated at the convergence of all known complement activation pathways (i.e., the classical, alternate and lectin pathways). To investigate further, C3aR levels in the brain were measured by Western blotting and immunofluorescence (FIG. 5). Western blotting was performed as follows. […]

[1] = Beam balance test (tapered/ledged beam); format: in vivo, rat; conditions: six weeks after surgery
Protocol: No other preparation was needed. The thawed tubes were kept on ice until dosing.
Six weeks after surgery, the sensory motor functions of forelimbs and hindlimbs were tested using tapered/ledged beam (Zhao et al., Behav. Brain Res. 156 (2005), 85-94). The shape of the beam was square. The rats were pre-trained for 3 days to traverse the beam. The beam-walking apparatus consists of a horizontal 160 cm tapered (square) beam with underhanging ledges on each side to permit foot faults without falling. The end of the beam was connected to a black box (20.5 cm×25 cm×25 cm) with a platform at the starting point. A bright light was placed above the start point to motivate the rats to traverse the beam. The rats' performance was videotaped and were analyzed by calculating the slip ratio of the impaired (contralateral to lesion) forelimb and hindlimb (number of slips/number of total steps). Steps onto the ledge were scored as a full slip and a half slip was given if the limb touched the side of the beam. Also, the walking/running time on the beam were measured. The mean of three trials were used for statistical analyses. Analysis was carried out by an observer blind to the experimental groups.

C3 = assay: Immunofluorescence quantification of C3 in brain; format: in vivo, rat; conditions: ipsilateral cortex and hippocampus, 48 hours, versus NT, P<0.05
Protocol: TUNEL/C1q staining was performed as follows. Five (5) μm paraffin-embedded coronal brain sections on slides were incubated (1 hour; 60° C.), deparaffinized with xylene, and rehydrated with ethanol (100%, 95%, 70%; RT). Endogenous peroxidase activity was blocked (0.3% H2O2/MeOH; 10 minutes; RT), and heat induced antigen retrieval was performed (when indicated) using 10 mM sodium citrate, pH 6.0. 10% normal serum (from the same species as the host of the secondary antibody) was used to block and to dilute antibodies. Samples were washed twice for 10 min each, in PBST between each step.
After blocking for one hour at room temperature, tissues were incubated with 1:300 goat anti-Iba1 (Abcam), 1:250 goat anti-GFAP (Abcam), 1:500 chicken anti-NeuN (Millipore, Billerica, Mass.), or 1:100 mouse anti-NeuN (Millipore) in host appropriate blocking serum overnight at 4° C. Primary antibodies were probed with 1:500 donkey anti-goat (Abcam), goat anti-chicken (Abcam), or goat anti-mouse (Abcam) AF 488 or 568 in appropriate blocking serum for one hour at room temperature. Tissues were blocked a second time with NGS for one hour at room temperature. […]

IALILEPICCQERAA-dPEG24 (cysteine pairing not given here) [PIC1]
decrease in brain infarct size (brain infarct after HIE): 68% | whole brain C3aR expression (C3aR): significantly higher | beam balance: hind paw slips ([1]; between study groups): No differences | beam balance: front paw slips ([1]; pooled genders and males, versus H/I+normo, p<0.05): fewer front paw slips | C3 expression (C3): decreased expression
